From ChEMBL document CHEMBL1156376, “Clathsterol, a novel anti-HIV-1 RT sulfated sterol from the sponge Clathria species” (J Nat Prod, 2001) come the findings set out here.

In this experiment the target is Human immunodeficiency virus type 1 reverse transcriptase (Human immunodeficiency virus 1) (UniProt Q72547). Description: Inhibition of HIV1 reverse transcriptase at 10 uM.

The source made the active and inactive calls. The calls are words filed in the database; no cut-off is given here.

As for `CCCC(=O)OC(C(CC)C(C)C)C(OC(=O)CCC)[C@@H](C)[C@H]1[C@@H](O)[C@H](OC(C)=O)[C@H]2[C@@H]3CCC4C[C@H](OS(=O)(=O)O)[C@@H](OS(=O)(=O)O)C[C@]4(C)[C@H]3CC[C@@]21C` (stereo partly specified), the result was Active.
